Measured values reported in patent US20260069643A1, “COMBINATIONS COMPRISING VITAMIN B2 AND LACTOBACILLUS RHAMNOSUS” (DSM IP Assets B.V., priority 2022, published 2026).

Legend:
Verrucomicrobia = experiment: Long-term SHIME fermentation (colon model), 16S rRNA gene sequencing and flow cytometry: abundance of Verrucomicrobia; conditions: FIG. 1, mucus of the transverse colon, end of three-week treatment vs end of control period (n=3), probiotic 1*10^10 CFU/reactor, vitamin B2 10 mg/day, significance p<0.05
Source text: (§1) The typical reactor setup of the SHIME®, representing the gastrointestinal tract of the adult human, was described by Molly et al. (1993) Applied Microbiology and Biotechnology 39(2):254-258. Inoculum preparation, retention time, pH, temperature settings and reactor feed composition were previously described by Possemiers et al. (2004) FEMS Microbiol Ecol. 49(3):495-507. Compared to the typical setup of the SHIME, the long-term SHIME experiment used for this example included some adaptations. In one reactor, at first, the conditions of the stomach were simulated, before being changed by the computer to conditions simulating the small intestine. […]
(§2) Samples for quantitative 16S-targeted Illumina sequencing were collected 3×/week during the last week of the control and treatment period. […] The obtained high-resolution proportional phylogenetic information (i.e., proportional abundances (%)) was combined with an accurate quantification of total bacterial cells via flow cytometry to obtain quantitative data at phylum, family, and species level. […] Samples were analyzed on a BD Facsverse (BDBiosciences, Erembodegem, Belgium) using the high-flowrate setting and bacteria were separated from medium debris and signal noise by applying a threshold level of 200 on the SYTO channel. […]

Akkermansiaceae = experiment: Long-term SHIME fermentation (colon model), 16S rRNA gene sequencing and flow cytometry: abundance of Akkermansiaceae; conditions: FIG. 2, mucus of the transverse colon, end of three-week treatment vs end of control period (n=3), probiotic 1*10^10 CFU/reactor, vitamin B2 10 mg/day, significance p<0.05
Source text: as §1, §2

Akkermansia muciniphila = experiment: Long-term SHIME fermentation (colon model), 16S rRNA gene sequencing and flow cytometry: abundance of Akkermansia muciniphila; conditions: FIG. 3, mucus of the transverse colon, end of three-week treatment vs end of control period (n=3), probiotic 1*10^10 CFU/reactor, vitamin B2 10 mg/day, significance p<0.05
Source text: as §1, §2

Lactobacillus rhamnosus GG
did not significantly change: abundance of Verrucomicrobia compared to the control (Verrucomicrobia) | abundance of Akkermansiaceae compared to the control (Akkermansiaceae) | abundance of Akkermansia muciniphila compared to the control (Akkermansia muciniphila)
